Data: patent US20150105252A1, “SUBSTITUTED PYRAZOLES AS HERBICIDES” (E I DU PONT DE NEMOURS AND COMPANY, priority 2013, published 2015)

Columns and labels:
chickweed [1] = experiment: Test D postemergence; type: in vivo, Stellaria media; conditions: scale 0 to 100
In short: (§1)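 Visual 0–100 control ratings at 14–21 days in a controlled growth environment. Application preemergence onto silt loam or postemergence onto 2–18 cm seedlings, using a non-phytotoxic solvent formulation with surfactant.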

chickweed [2] = experiment: Test D preemergence; type: in vivo, Stellaria media; conditions: Preemergence, scale 0 to 100
In short: as §1

mustard, wild = experiment: Test D preemergence; type: in vivo, Sinapis arvensis; conditions: Preemergence, scale 0 to 100
In short: as §1

wheat, winter = experiment: Test D postemergence; type: in vivo, Triticum aestivum; conditions: scale 0 to 100
In short: as §1

wheat, spring = experiment: Test D postemergence; type: in vivo, Triticum aestivum; conditions: scale 0 to 100
In short: as §1

galium = experiment: Test D preemergence; type: in vivo, Galium aparine; conditions: Preemergence, scale 0 to 100
In short: as §1

windgrass = experiment: Test D preemergence; type: in vivo, Apera spica-venti; conditions: Preemergence, scale 0 to 100
In short: as §1

radish, wild = experiment: Test D preemergence; type: in vivo, Raphanus raphanistrum; conditions: Preemergence, scale 0 to 100
In short: as §1

buckwheat, wild [3] = experiment: Test D postemergence; type: in vivo, Polygonum convolvulus; conditions: scale 0 to 100
In short: as §1

ryegrass, Italian = experiment: Test D preemergence; type: in vivo, Lolium multiflorum; conditions: Preemergence, scale 0 to 100
In short: as §1

field violet = experiment: Test D preemergence; type: in vivo, Viola arvensis; conditions: Preemergence, scale 0 to 100
In short: as §1

foxtail, green = experiment: Test D preemergence; type: in vivo, Setaria viridis; conditions: Preemergence, scale 0 to 100
In short: as §1

buckwheat, wild [4] = experiment: Test D preemergence; type: in vivo, Polygonum convolvulus; conditions: Preemergence, scale 0 to 100
In short: as §1

field poppy = experiment: Test D postemergence; type: in vivo, Papaver rhoeas; conditions: scale 0 to 100
In short: as §1

bluegrass = experiment: Test D postemergence; type: in vivo, Poa annua; conditions: scale 0 to 100
In short: as §1

kochia = experiment: Test D preemergence; type: in vivo, Kochia scoparia; conditions: Preemergence, scale 0 to 100
In short: as §1

oilseed rape = experiment: Test D postemergence; type: in vivo, Brassica napus; conditions: scale 0 to 100
In short: as §1

barley, spring = experiment: Test D preemergence; type: in vivo, Hordeum vulgare; conditions: Preemergence, scale 0 to 100
In short: as §1

barley, winter = experiment: Test D preemergence; type: in vivo, Hordeum vulgare; conditions: Preemergence, scale 0 to 100
In short: as §1

pigweed = experiment: Test D preemergence; type: in vivo, Amaranthus retroflexus; conditions: Preemergence, scale 0 to 100
In short: as §1

Compound: CCc1cc(C(=O)NCC(F)(F)F)nn1Cc1ccnc(SC(F)(F)F)c1 [Compound 214]
- Chickweed plant response rating (chickweed [1]; Postemergence, 31 g ai/ha): 65
- Chickweed plant response rating (chickweed [1]; Postemergence, 125 g ai/ha): 70
- Chickweed plant response rating (chickweed [1]; Postemergence, 250 g ai/ha): 70
- Chickweed plant response rating (chickweed [1]; postemergence, 62 g ai/ha): 65
- Plant response rating, Chickweed (chickweed [2]; 31 g ai/ha): 90
- Plant response rating, Chickweed (chickweed [2]; 62 g ai/ha): 75
- Plant response rating, Chickweed (chickweed [2]; 125 g ai/ha): 100
- Plant response rating, Chickweed (chickweed [2]; 250 g ai/ha): 100
- Plant response rating, Mustard, Wild (mustard, wild; 62 g ai/ha): 100
- Plant response rating, Mustard, Wild (mustard, wild; 125 g ai/ha): 100
- Plant response rating, Mustard, Wild (mustard, wild; 250 g ai/ha): 100
- Wheat, Winter plant response rating (wheat, winter; Postemergence, 31 g ai/ha): 15
- Wheat, Winter plant response rating (wheat, winter; Postemergence, 125 g ai/ha): 20
- Wheat, Winter plant response rating (wheat, winter; Postemergence, 250 g ai/ha): 40
- Wheat, Winter plant response rating (wheat, winter; postemergence, 62 g ai/ha): 15
- Wheat, Spring plant response rating (wheat, spring; Postemergence, 31 g ai/ha): 15
- Wheat, Spring plant response rating (wheat, spring; Postemergence, 125 g ai/ha): 15
- Wheat, Spring plant response rating (wheat, spring; Postemergence, 250 g ai/ha): 20
- Wheat, Spring plant response rating (wheat, spring; postemergence, 62 g ai/ha): 15
- Plant response rating, Galium (galium; 62 g ai/ha): 85
- Plant response rating, Galium (galium; 125 g ai/ha): 100
- Plant response rating, Galium (galium; 250 g ai/ha): 100
- Plant response rating, Windgrass (windgrass; 62 g ai/ha): 85
- Plant response rating, Windgrass (windgrass; 125 g ai/ha): 90
- Plant response rating, Windgrass (windgrass; 250 g ai/ha): 100
- Plant response rating, Radish, Wild (radish, wild; 62 g ai/ha): 100
- Plant response rating, Radish, Wild (radish, wild; 125 g ai/ha): 100
- Plant response rating, Radish, Wild (radish, wild; 250 g ai/ha): 100
- Buckwheat, Wild plant response rating (buckwheat, wild [3]; Postemergence, 31 g ai/ha): 70
- Buckwheat, Wild plant response rating (buckwheat, wild [3]; Postemergence, 125 g ai/ha): 70
- Buckwheat, Wild plant response rating (buckwheat, wild [3]; Postemergence, 250 g ai/ha): 80
- Buckwheat, Wild plant response rating (buckwheat, wild [3]; postemergence, 62 g ai/ha): 70
- Plant response rating, Ryegrass, Italian (ryegrass, Italian; 62 g ai/ha): 55
- Plant response rating, Ryegrass, Italian (ryegrass, Italian; 125 g ai/ha): 70
- Plant response rating, Ryegrass, Italian (ryegrass, Italian; 250 g ai/ha): 90
- Plant response rating, Field Violet (field violet; 62 g ai/ha): 100
- Plant response rating, Field Violet (field violet; 125 g ai/ha): 100
- Plant response rating, Field Violet (field violet; 250 g ai/ha): 100
- Plant response rating, Foxtail, Green (foxtail, green; 62 g ai/ha): 100
- Plant response rating, Foxtail, Green (foxtail, green; 125 g ai/ha): 100
- Plant response rating, Foxtail, Green (foxtail, green; 250 g ai/ha): 100
- Plant response rating, Buckwheat, Wild (buckwheat, wild [4]; 31 g ai/ha): 35
- Plant response rating, Buckwheat, Wild (buckwheat, wild [4]; 62 g ai/ha): 95
- Plant response rating, Buckwheat, Wild (buckwheat, wild [4]; 125 g ai/ha): 90
- Plant response rating, Buckwheat, Wild (buckwheat, wild [4]; 250 g ai/ha): 100
- Field Poppy plant response rating (field poppy; Postemergence, 31 g ai/ha): 70
- Field Poppy plant response rating (field poppy; Postemergence, 125 g ai/ha): 70
- Field Poppy plant response rating (field poppy; Postemergence, 250 g ai/ha): 80
- Field Poppy plant response rating (field poppy; postemergence, 62 g ai/ha): 70
- Bluegrass plant response rating (bluegrass; Postemergence, 31 g ai/ha): 15
- Bluegrass plant response rating (bluegrass; Postemergence, 125 g ai/ha): 15
- Bluegrass plant response rating (bluegrass; Postemergence, 250 g ai/ha): 20
- Bluegrass plant response rating (bluegrass; postemergence, 62 g ai/ha): 15
- Plant response rating, Kochia (kochia; 62 g ai/ha): 70
- Plant response rating, Kochia (kochia; 125 g ai/ha): 100
- Plant response rating, Kochia (kochia; 250 g ai/ha): 100
- Oilseed Rape plant response rating (oilseed rape; Postemergence, 31 g ai/ha): 65
- Oilseed Rape plant response rating (oilseed rape; Postemergence, 125 g ai/ha): 75
- Oilseed Rape plant response rating (oilseed rape; Postemergence, 250 g ai/ha): 100
- Oilseed Rape plant response rating (oilseed rape; postemergence, 62 g ai/ha): 65
- Plant response rating, Barley, Spring (barley, spring; 31 g ai/ha): 10
- Plant response rating, Barley, Spring (barley, spring; 62 g ai/ha): 40
- Plant response rating, Barley, Spring (barley, spring; 125 g ai/ha): 65
- Plant response rating, Barley, Spring (barley, spring; 250 g ai/ha): 80
- Plant response rating, Barley, Winter (barley, winter; 31 g ai/ha): 15
- Plant response rating, Barley, Winter (barley, winter; 62 g ai/ha): 35
- Plant response rating, Barley, Winter (barley, winter; 125 g ai/ha): 55
- Plant response rating, Barley, Winter (barley, winter; 250 g ai/ha): 65
- Plant response rating, Pigweed (pigweed; 62 g ai/ha): 100
- Plant response rating, Pigweed (pigweed; 125 g ai/ha): 100
- Plant response rating, Pigweed (pigweed; 250 g ai/ha): 100
